Measured values reported in patent US5783568A, “Methods for treating cancer and other cell proliferative diseases” (Sugen, Inc., priority 1994, dated 1998).
Entries after “also recorded” stand apart in the source; their conditions may differ.

What was measured:
[1] = test system: FGFR2 (bek); assay: Cross-linking (BS^3) of FGF receptors in mutant CHO-pgsD-677 cells, receptor dimerization; assay type: cell-based, human; settings: 0.1 nM aFGF, with or without 50 nM heparin
Description: (§1) Parental (lanes 1-4) and mutant CHO cells (lanes 5-8) were incubated with either 50 nM heparin (lanes 2 and 6), 0.1 nM aFGF (lanes 3 and 7), or both (lanes 4 and 8), for 1 hour at 4° C. Cells were then treated with the covalent cross-linking agent BS^3 for […] at room temperature, solubilized and immunoprecipitated with anti-FGFR2 antibodies. The samples were analyzed by a gradient SDS gel (6-8%), transferred to nitrocellulose membranes and probed with anti-FGFR2 antibodies. M--FGFR monomers; D--FGFR dimers.
(§2) Cells grown in fibronectin-coated dishes were starved overnight in F-12 medium containing 0.5% FBS. Cells were then washed with ice-cold binding medium (F-12 medium containing 20 mM Hepes (pH 7.5) and 0.1% BSA), and incubated for 1 hour at 4° C. with either aFGF (0.1 nM), heparin (50 nM), or both. The cells were then washed twice with cold PBS and incubated with 1 mM BS^3 in PBS for 20 minutes at room temperature. The cross-linking reaction was quenched by the addition of 50 mM Tris-HCl and 100 mM glycine for 10 min at room temperature. […]
(§3) Full-length FGFR2 was transfected into two CHO cell lines; wild-type CHO-K1, and the mutant CHO-pgsD-677, which is defective in heparin sulfate expression at its cell-surface (Esko, 1991). […] Cells were then lysed, and immunoprecipitated FGFR2 was analyzed by SDS-PAGE followed by immunoblotting with anti-FGFR2 antibodies.

[2] = test system: FGFR2 (bek); assay: Cross-linking (BS^3) of FGF receptors in CHO-K1 cells, receptor dimerization; assay type: cell-based, human; settings: 0.1 nM aFGF, with or without 50 nM heparin
Description: as §1, §2, §3

[3] = molecular target: T1, aFGF (Homo sapiens, UniProt P05230); settings: Mach et al., 1993; cited from earlier work
T1 construct: made in house; host or cells: E. coli
T1 sequence (P05230 whole entry): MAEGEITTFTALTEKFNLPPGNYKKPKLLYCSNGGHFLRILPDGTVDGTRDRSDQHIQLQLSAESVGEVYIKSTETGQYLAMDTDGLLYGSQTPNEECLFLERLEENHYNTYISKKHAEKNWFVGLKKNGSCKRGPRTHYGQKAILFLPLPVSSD

[4] = test system: FGFR2 (bek); assay: Tyrosine phosphorylation of FGFR2 in mutant (HSPG-deficient) CHO-pgsD-677 cells; assay type: cell-based, human; settings: 0.1 nM aFGF, 50 nM heparin, 5 min at 37° C.
Description: Cells were lysed and the receptor was immunoprecipitated with anti-FGFR2 antibodies. Samples were then analyzed by SDS-PAGE, transferred to nitrocellulose membranes, and tyrosine-phosphorylated proteins were detected by immunoblotting with anti-phosphotyrosine antibodies.
Wild-type CHO cells (CHO-K1), as well as heparin sulfate-deficient mutant cells (CHO-pgsD-677) which were kindly provided by Prof. J. Esko (Esko, 1991), were cultured in F-12 medium containing 7.5% FBS, 1% Ampicillin/Streptomycin and 1% glutamine. Both CHO cell lines were co-transfected with the wild-type human FGFR2 (bek) DNA in the expression vector pMJ30 (Dionne et al., 1990) (40 μg/10 cm dish) and the pSVneo resistant gene (0.5 mg/10 cm dish), using the calcium phosphate method (Chen and Okayama, 1987). Geneticin (1 mg/ml) resistant clones were screened for expression of the receptor by immunoprecipitation and immunoblotting analysis using anti-FGFR2 antibodies.
Wild-type and mutant CHO cells were starved overnight in F-12 medium containing 0.5% FBS, and stimulated with either 0.1 nM aFGF, 50 nM heparin, or both, for 5 min at 37° C. Cells were lysed, immunoprecipitated with anti-FGFR2 antibodies and analyzed by immunoblotting with anti-phosphotyrosine (anti-PTyr) antibodies.

Row | Substance | receptor dimerization in mutant CHO-pgsD-677 cells [1] | receptor dimerization in CHO-K1 cells [2] | binding to aFGF [3] | FGFR2 autophosphorylation in mutant (heparin-deficient) CHO cells [4]
1 | aFGF: aFGF was expressed in E. coli and purified by binding to a heparin-sepharose column | could only induce the dimerization of FGFR2 when exogenous heparin was added; also recorded: can only induce FGFR dimerization in the presence of heparin | could induce receptor dimerization regardless of the presence of exogenous heparin | – | –
2 | heparin | – | – | relatively high affinity, in a multivalent fashion | required for significant levels of aFGF-induced FGFR2 autophosphorylation; also recorded: the addition of heparin is required for aFGF to activate FGFR
